The source of these data is PubChem BioAssay AID2305 (GlaxoSmithKline (GSK), 2010).

Where “and” joins values, the source holds several entries; their conditions need not be identical. Identical values can stand only once.

In the experiment the test system is P. falciparum 3D7 growth, pLDH absorbance. The experiment is described as follows: P. falciparum 3D7 growth inhibition, dose response, strain 3D7 (AID 2305).

In general, IC50 refers to the midpoint of a concentration-inhibition curve. Low values mean inhibition by little substance, high ones a need for much substance.

`Cc1cc(NCCc2ccccc2)nc(/N=C(\N)Nc2cccc(F)c2)n1` displayed a half-maximal inhibitory concentration (IC50) of 900 nM.

Regarding `CCOC(C(=O)OCC1CCCN1C(C)C)(c1ccccc1)c1ccccc1` (stereo not given), the IC50 stood at 760 nM. The IC50 values of the last two compounds are within 1.5-fold of each other.

The compound `O=C(/C=C/c1ccc(Cl)c(Cl)c1)NCCCCCCN1CCN(C(=O)Nc2cccc(Cl)c2)CC1` gave an IC50 of 980 nM. This IC50 and that of the compound before are within 1.5-fold of each other.

Consider `Cc1noc(C)c1-c1ccc2c(Nc3ccc(C#N)cc3)c(C(N)=O)cnc2c1`, for which the IC50 came to 750 nM.

The compound `O=C(Cc1ccc(NC(=O)c2ccc(O)c(-c3ccc(Cl)c(Cl)c3)c2)cc1)NCc1cccc(C(F)(F)F)c1` showed an IC50 of 880 nM.

`O=C(NCCc1ccccc1)N(Cc1cccc(-c2ccc(CNCCc3ccccc3)cc2)c1)C1CCN(Cc2ccccc2)CC1`: the IC50 worked out at 610 nM.

The compound `N=C(N)c1ccc(Nc2nc(Nc3ccc(-c4ccccc4)cc3)ncc2[N+](=O)[O-])cc1` gave an IC50 of 800 nM.

On to `OCC1CCN(Cc2cccc(-c3ccc(-c4nc5ccc(F)cc5[nH]4)cc3)c2)CC1`, for which the IC50 came to 720 nM.

For `CS(=O)(=O)N(c1ccccc1)c1cc(C(=O)N[C@@H](Cc2ccccc2)[C@H](O)CNC2CC2)cc(N2CCCC2=O)c1`, the IC50 came out at 300 nM.

With `O=C(NCCN1CCCC1)c1ccc(-c2ccc(-c3nc4ccccc4[nH]3)s2)cc1`, the IC50 came out at 940 nM. This IC50 is about 3.1-fold higher than that of the compound before.

`Oc1ccc(CCNc2nc(NCCCOc3ccccc3-c3ccncc3)nc(N3CCNCC3)n2)cc1`: the IC50 was found to be 1110 nM.

Regarding `COc1ccc(C2CCC(NCCCCNC(=O)c3ccc(NC(=O)c4ccc(Cl)cc4)cc3)CC2)cc1` (stereo not given), the IC50 is 630 nM.

For `O=C(/C=C/c1ccc(Cl)c(Cl)c1)NCCCCCCN1CCCN(C(=O)Nc2ccc(C(F)(F)F)cc2)CC1`, the IC50 came to 580 nM.

In the case of `Cc1ccccc1C1CCN(C2CCC(NC(=O)/C=C/c3ccc(C(F)(F)F)cc3)CC2)CC1` (stereo not given), the IC50 was 1040 nM.

`C/C=C1\CN2CC[C@H]1C[C@H]2[C@H](O)c1ccnc2ccc(OC)cc12`: the IC50 is 220 nM and 320 nM.

`COc1ccc(CNCCc2cccs2)cc1-c1ccc(S(=O)(=O)NCCN2CCCC2)s1` registered an IC50 of 880 nM. This lies in the sub-micromolar range.

Regarding `COc1c(C2CCN(CCCCNC(=O)C=Cc3cc4cc(Cl)ccc4o3)CC2)ccc2c1CCCC2`, the IC50 was 1310 nM. The IC50 values of the last two compounds are within 1.5-fold of each other.

Compound `CC(C)CNCc1cccc(-c2ccccc2CN(C(=O)NCCc2ccccc2)C2CCN(Cc3ccccc3)CC2)c1` gave an IC50 of 1170 nM.

For `O=C(Nc1cc2cc(-c3ccc(CN4CCCCC4)cc3)ccc2n2cnnc12)NC1CCCC1`, the IC50 came to 1520 nM.

`Oc1ccc2[nH]cc(C3CCN(CCCNCc4ccc(-c5ccccc5)cc4)CC3)c2c1` displayed an IC50 of 720 nM.

For the compound `Cc1cccc(C(=O)N2CCN(Cc3cccc(NC(=O)c4ccco4)c3)CC2)c1`, the half-maximal inhibitory concentration (IC50) is 760 nM.

In turn, `FC(F)(F)c1ccc2nc(-c3ccc(-c4ccc(CN5CCN(c6ccncc6)CC5)cc4)cc3)[nH]c2c1` showed an IC50 of 60 nM.

The compound `CC(C)(CNCc1cc(Cl)cc(Cl)c1)c1nc(-c2ccc(Cl)c(O)c2)c(-c2ccnc(N)n2)[nH]1` yielded a half-inhibitory concentration (IC50) of 1010 nM.

The compound `CC(=O)c1sc2ccccc2c1O` yielded an IC50 of 880 nM.

`CCCCCCCN1CC[C@H](NC(=O)Nc2ccnc3ccc(OC)cc23)[C@H](C(=O)OCC)C1` returned an IC50 of 430 nM. Compared with the last compound, the IC50 is about 2-fold lower.

As to `O=C(Nc1ccc(Br)cc1)Nc1ccc(Cn2ncc(N3CCCNCC3)c(Cl)c2=O)cc1`, the IC50 turned out to be 1140 nM.

`COc1cc(CCNC(=O)Cc2ccc3ccccc3c2)ccc1OCc1ccccc1` returned an IC50 of 1020 nM.

The compound `O=[N+]([O-])c1ccccc1C=NNc1c2c(nc3ccccc13)CCCC2` registered an IC50 of 310 nM. Compared with the last compound, the IC50 is about 3.3-fold lower.

As for `O=c1[nH]c(Cc2ccccc2)nc2ccc(Cl)cc12`, the IC50 was 880 nM. This IC50 lies about 2.8-fold higher than the previous one.

In turn, `O=C(c1ccc(O)c(-c2cc(Cl)cc(Cl)c2)c1)N1CCCC1` yielded an IC50 of 1000 nM.

`c1csc(-c2nc(NCC3CCCO3)ncc2-c2ccsc2)n1` (stereo not given): the IC50 stood at 490 nM.

The compound `c1ccc(CN2CCC(NCc3ccc(-c4cncc5ccccc45)cc3)CC2)cc1` had an IC50 of 880 nM.

For the compound `Cc1[nH]c(C)c(-c2ccc(Oc3ccc(OC(F)(F)F)cc3)cc2)c(=O)c1Br`, the IC50 is 560 nM and 110 nM.

`COc1ccccc1CCNc1ncc(F)c(N[C@@H](Cc2ccccc2)C(=O)NCCc2ccccc2)n1` returned an IC50 of 960 nM.

As for `CN(C)c1ccc(C(c2ccc(N(C)C)cc2)c2cc([N+](=O)[O-])ccc2Cl)cc1`, the half-maximal inhibitory concentration (IC50) is 910 nM.

The compound `Cc1cc(C)cc(-n2c(C)cc(C=C3SC(=Nc4ccc(Cl)cc4)NC3=O)c2C)c1` displayed an IC50 of 70 nM.

In turn, `Cc1cccc2[nH]c(-c3ccc(-c4ccc(CNCCCN5CCCC5=O)cc4)cc3)nc12` came in with an IC50 of 630 nM.

Regarding `O=[N+]([O-])c1cccc(NC(=S)N2CCCN(Cc3ccc(F)cc3F)CC2)c1`, the 50% inhibitory concentration (IC50) was determined as 830 nM.

Take `CCc1nc(N)nc(N)c1-c1ccc(F)c(F)c1`: the IC50 was found to be 420 nM.

The compound `O=S(=O)(c1ccc(OCc2ccc(Cl)cc2)cc1)c1cc2c(cc1OCc1ccccc1)CCN(CC1CC1)CC2` had an IC50 of 1110 nM.

In turn, `COc1ccc2ncc(F)c(CCN3C[C@H](CNCc4cc(F)c5c(c4)NC(=O)CO5)[C@H](O)C3)c2n1` registered an IC50 of 670 nM.

`FC(F)(F)c1ccc2nc(-c3ccc(-c4cccc(CN5CCN(c6ccncc6)CC5)c4)cc3)[nH]c2c1` had a half-maximal inhibitory concentration (IC50) of 120 nM.

Consider `CC(C)CN1C(=O)c2ccccc2C(C(=O)Nc2cccc(C#N)c2)C1c1cccs1` (stereo not given), for which the IC50 came to 160 nM.

As to `O=C(Nc1ccc(-c2nc3ccccc3[nH]2)cc1)C1CCN(Cc2ccc(F)cc2)CC1`, the IC50 was determined as 840 nM.

Compound `COc1ccc2nccc([C@@H](O)CN3CCC(NC(=O)C(=Cc4ccc(Cl)cc4Cl)c4ccc(-c5ccccc5)cc4)CC3)c2c1` showed an IC50 of 990 nM. This IC50 and that of the compound before are within 1.5-fold of each other.

Take `O=C1C([N+](=O)[O-])=C(O)c2cccc(F)c21`: the IC50 was determined as 150 nM.

With `COc1ccc(Br)cc1/C=C/C(=O)Nc1cccc(C2CCN(C)CC2)c1`, the half-maximal inhibitory concentration (IC50) worked out at 520 nM. This IC50 is about 3.5-fold higher than that of the compound before.

`FC(F)(F)c1ccc2nc(-c3ccc(-c4cccc(CNCCN5CCNCC5)c4)s3)[nH]c2c1` returned a half-inhibitory concentration (IC50) of 1040 nM.

`O=C(/C=C/c1ccc(Cl)c(Cl)c1)NCCCCCN1CCCN(C(=O)Nc2ccc(C(F)(F)F)cc2)CC1` registered a concentration for half-maximal inhibition (IC50) of 690 nM.

Compound `CC(C)(CNCc1ccc(F)c(F)c1)c1nc(-c2ccc(Cl)c(O)c2)c(-c2ccnc(N)n2)[nH]1` yielded an IC50 of 740 nM. This IC50 and that of the compound before are within 1.5-fold of each other.

`N#Cc1cccc(NC(=O)NC2CCN(CCCCCNC(=O)/C=C/c3ccc(Cl)c(Cl)c3)CC2)c1` had a half-inhibitory concentration (IC50) of 710 nM.

`Cc1cccc2[nH]c(-c3ccc(-c4ccc(CNCCc5ccncc5)cc4)cc3)nc12`: the 50% inhibitory concentration (IC50) stood at 210 nM.

On to `COc1ccc2nc(-c3ccccc3)cc(NCCCNc3cc(-c4ccccc4)nc4ccc(OC)cc34)c2c1`, for which the IC50 stood at 120 nM.

Compound `O=C(Nc1cccc(C(F)(F)F)c1)NC1CCN(c2ccnc3cc(Cl)ccc23)C1` (stereo not given) returned a 50% inhibitory concentration (IC50) of 120 nM.

The compound `O=C(Nc1cc(F)cc(F)c1)N1CCOC(CCN2CCC3(CCc4ccccc43)CC2)(c2ccc(Cl)c(Cl)c2)C1` (stereo not given) returned an IC50 of 280 nM.

As to `CN1CCN(Cc2ccc(-c3ccc4ncnc(Nc5ccc(OCc6ccccc6)cc5)c4c3)o2)CC1`, the half-maximal inhibitory concentration (IC50) amounted to 690 nM.

The compound `CCCCCCNC(=O)c1nn(CCN2CCC(N3CCCC3)CC2)cc1-c1ccc(Cl)c(Cl)c1` returned an IC50 of 730 nM.

With `CC[C@H]1CN2CC[C@H]1C[C@H]2[C@H](O)c1cc(/C=C/c2ccccc2)nc2ccc(OC)cc12`, the 50% inhibitory concentration (IC50) is 40 nM.

`O=C(Nc1ccc(OC2CCN(Cc3ccccc3)C2)c(Cl)c1)c1ccco1` (stereo not given) returned an IC50 of 410 nM.

`CCCCCCCCCCS(=O)(=O)N[C@H](COCc1cccc(Oc2ccccc2)c1)COP(=O)(O)OC` registered an IC50 of 1020 nM.

`C#CCOc1ccc(N2C(N)=NC(N)=NC2(C)C)cc1` had a half-maximal inhibitory concentration (IC50) of 70 nM.

In turn, `CNC(=O)C(C)N(c1ccc(Cl)cc1)c1nc(C(C)(C)C)cs1` (stereo not given) had an IC50 of 740 nM.

Compound `CCCCNCc1ccc(OCc2cccc(COc3ccc(CNCCCC)cc3)c2)cc1` came in with an IC50 of 320 nM. Compared with the last compound, the IC50 is about 2.3-fold lower.

In turn, `NCc1ccc(CNCc2cccc(-c3cccc(-c4nc5ccccc5[nH]4)c3)c2)cc1` returned an IC50 of 490 nM.

For `Cc1ccc(CN2CCN(c3cc4c(cc3Cl)CCN4C(=O)Cc3ccc(Cl)c(NC(=O)Nc4cccc(C#N)c4)c3)CC2)cc1`, the IC50 was 1130 nM.

Regarding `CCC[C@@H]([C@@H](CC1CCCCC1)C(=O)NC(C(=O)Nc1nccs1)C(CC)c1ccccc1)N(O)C=O` (stereo not given in full), the IC50 is 690 nM.

For the compound `COc1ccc2nccc([C@@H](O)CN3CCC(NCc4ccc5c(c4)oc(=S)n5C)CC3)c2c1`, the 50% inhibitory concentration (IC50) came to 190 nM.

Turning to `CCN(CC)CCCC(C)Nc1c2ccccc2nc2ccc3ccccc3c12` (stereo not given), the concentration for half-maximal inhibition (IC50) was found to be 1040 nM.

Compound `O=C(Nc1ccc(C(F)(F)F)cc1)c1cccc(S(=O)(=O)NC2CCN(Cc3ccccc3)C2)c1` (stereo not given) registered an IC50 of 1050 nM.

For `Cc1ccc(-c2cc(C(=O)Nc3ccc(S(=O)(=O)N4CCOCC4)cc3)[nH]n2)c(O)c1C`, the IC50 was found to be 920 nM. The IC50 values of the last two compounds are within 1.5-fold of each other.

In the case of `CCCNCc1ccc(-c2ccc(CN(CCOC)C(=O)CC3CCCC3=O)cc2)nc1` (stereo not given), the IC50 was determined as 1240 nM.

`Cc1ccccc1Nc1cc(Nc2ccccc2C)c2ccccc2n1`: the half-inhibitory concentration (IC50) is 780 nM. Compared with the last compound, the IC50 is about 1.6-fold lower.

In the case of `CC(=O)Nc1cccc(CNc2cc(C)nc(Nc3ccc(C)cc3)n2)c1`, the IC50 stood at 1140 nM.

`Cc1ccc(N)cc1-c1nc(NC2CC(C)(C)NC(C)(C)C2)nc2c1ccc(=O)n2-c1c(F)cccc1F` gave an IC50 of 840 nM.

As for `CC(C)c1nc2c(N)nc(N)nc2nc1N`, the IC50 was found to be 1310 nM.

On to `CC(Nc1ccc2c(c1)OCCO2)C(=O)Nc1cc(C(F)(F)F)ccc1N1CCOCC1` (stereo not given), for which the half-inhibitory concentration (IC50) stood at 410 nM.

Regarding `N#Cc1ccc(N2CCN(Cc3cccc(-c4ccc(-c5nc6ccc(C(F)(F)F)cc6[nH]5)cc4)c3)CC2)nc1`, the IC50 turned out to be 700 nM.

As to `c1cc(CN2CCCCC2)cc(-c2ccc(-c3nc4ccccc4[nH]3)cc2)c1`, the IC50 was 890 nM.

With `CC(C)NCc1ccc(-c2cccc(NC(=O)c3cccc(Cl)c3)c2)cc1`, the IC50 turned out to be 730 nM.

As for `Cn1c(NC(=O)CCCCCNC(=O)c2ccc(O)c(-c3ccc(Cl)c(Cl)c3)c2)nc2ccccc21`, the IC50 is 730 nM.

With `CN1CCN(c2cc3c(cc2Cl)CCN3C(=O)Cc2ccc(NC(=O)Nc3cccc4ccccc34)cc2)CC1`, the IC50 stood at 970 nM.

For the compound `COCC(=O)N(Cc1cccc(-c2ccc(CNCCc3ccccc3)cc2)c1)C1CCN(Cc2ccccc2)CC1`, the IC50 was 1100 nM.

`N#Cc1ccc2c(c1)CN(C1CCC(NC(=O)C3=Cc4cc(Cl)ccc4OC3)CC1)CCC2` (stereo not given) returned an IC50 of 1330 nM.

For `c1cc(CN2CCCCC2)cc(-c2cccc(-c3nc4ccccc4[nH]3)c2)c1`, the half-inhibitory concentration (IC50) came out at 830 nM.

With `O=C(Nc1ccc2c(c1)CCN2C1CCN(Cc2cccc(F)c2F)C1)c1ccco1` (stereo not given), the IC50 turned out to be 790 nM.
